These results are taken from patent publication US6403607B1, “Sulfonamide derivatives and drugs containing the same as the active ingredient” (priority 1998, dated 2002).

Experiment [1] has as its system HCl-ethanol ulcer in the gland gastric region. The experiment can be described thus: HCl-ethanol ulcer. It counts as in vivo, Rats. The conditions noted are these: rats fasted 24 hours, drug oral, 60% ethanol containing 0.15 N hydrochloric acid 1 ml/rat after one hour, size of ulcer one hour later; dose not given. As for the experimental part:
HCl-ethanol Ulcer Rats were fasted for 24 hours and orally administered with a drug. After one hour, 60% ethanol containing 0.15 N hydrochloric acid (1 ml/rat) was perorally administered to each rat. One hour after ethanol administration, the size of ulcer in the gland gastric region was measured for evaluation of anti-ulcer effects of the drug.

A further experiment concerns Helicobacter pylori. In words: Anti-Helicobacter-pylori action (agar plate dilution MIC). It counts as cell-based. The conditions noted are these: clinically isolated 10 bacterial strains, agar plate dilution method. On the procedure:
Anti-Helicobacter-pylori Action
Using clinically isolated 10 bacterial strains, the minimum inhibitory concentration (MIC) was measured according to the agar plate dilution method.

Experiment [2] relates to ethanol ulcer in the gland gastric region. The experiment can be described thus: Ethanol ulcer. It counts as in vivo. The conditions noted are these: rats fasted 24 hours, drug oral, 99.5% ethanol 1 ml/rat after one hour, size of ulcer one hour later; for Suppression: dose not given. On the procedure: Ethanol Ulcer Rats were fasted for 24 hours and orally administered with a drug. After one hour, 99.5% ethanol (1 ml/rat) was fed through oral administration. After one hour of ethanol administration, the abdomens of the rats were dissected and the size of ulcer in the gland gastric region was measured for each rat.

Setting [3] is: Helicobacter pylori, read-out: MIC.

Converted amounts (≈) assume the structure as drawn. Like-named read-outs stand apart in the source and are kept apart here.

`Cc1ccc(S(=O)(=O)N(CCN(C)C)c2ccccc2NCCOc2ccc(Cl)cc2)cc1.Cl` [Example 36, N-[2-(Dimethylamino)ethyl]-N-(p-toluenesulfonyl)-N′-[2-(4-chlorophenoxy)ethyl]-o-phenylenediamine Hydrochloride] yielded a Suppression in experiment [1] of 92%.
`CCN(CCNc1ncccc1N(CCN)S(=O)(=O)c1ccc(Cl)cc1)c1ccc(Cl)cc1` [Example 116, 2-[2-[N-(4-Chlorophenyl)-N-ethyl]aminoethyl]amino-3-[N-(2-aminoethyl)-N-(4-chlorobenzenesulfonyl)]aminopyridine] showed an MIC in the experiment with Helicobacter pylori of 6.25 to 12.5 µg/mL. For the same molecule, the Suppression in experiment [2] is 99%.
For `NCCOCCN(c1ccccc1NCCOc1ccc(Cl)cc1)S(=O)(=O)c1ccc(F)cc1` [Example 41, N-[2-(2-Amino)ethoxyethyl]-N-(4-fluorobenzenesulfonyl)-N′-[2-(4-chlorophenoxy)ethyl]-o-phenylenediamine], the Suppression in experiment [2] is listed as 93%.
With `NCCN(c1ccccc1NCCSc1ccc(Cl)cc1)S(=O)(=O)c1ccc(Cl)cc1` [Example 65, N-(2-Aminoethyl)-N-(4-chlorobenzenesulfonyl)-N′-[2-(4-Chlorophenylthio)ethyl]-o-phenylenediamine], the MIC with Helicobacter pylori (setting [3]) lay in the range of 6.25 to 25 µg/mL (≈ 12.6 to 50.4 µM).
For the molecule `CN(C)CCN(c1ccccc1NCCOc1ccc(F)cc1)S(=O)(=O)c1ccc(Cl)cc1.Cl` [Example 48, N-[2-(Dimethylamino)ethyl]-N-(4-chlorobenzenesulfonyl)-N′-[2-(4-fluorophenoxy)ethyl]-o-phenylenediamine Hydrochloride], the Suppression in experiment [1] was 85%.
In turn, `NCCOCCN(c1ccccc1NCCOc1ccc(Cl)cc1)S(=O)(=O)c1ccccc1` [Example 33] came in with a Suppression in experiment [2] of 83%.
In experiment [2], `NCCN(c1cccnc1NCCOc1ccc(Cl)cc1)S(=O)(=O)c1ccc(Cl)cc1` [Example 106, 2-[2-(4-Chlorophenoxy)ethyl]amino-3-[N-(2-aminoethyl)-N-(4-chlorobenzenesulfonyl)]aminopyridine] returned an ED50 of 8.4 mg/kg and a Suppression of 98%.
The molecule `CN(C)CCN(c1cccc(NCCOc2ccc(Cl)cc2)c1)S(=O)(=O)c1ccc(Cl)cc1.Cl` [Example 55, N-[2-(Dimethylamino)ethyl]-N-(4-chlorobenzenesulfonyl)-N′-[2-(4-chlorophenoxy)ethyl]-m-phenylenediamine Hydrochloride] showed a Suppression in experiment [1] of 88%.
Regarding `NCCOCCN(c1ccccc1NCCOc1ccc(F)cc1)S(=O)(=O)c1ccc(Cl)cc1` [Example 47, N-[2-(2-Amino)ethoxyethyl]-N-(4-chlorobenzenesulfonyl)-N′-[2-(4-fluorophenoxy)ethyl]-o-phenylenediamine], the Suppression in experiment [2] is reported as 100%.
In the experiment on Helicobacter pylori, `Cc1ccc(NCCNc2ncccc2N(CCN)S(=O)(=O)c2ccc(C)cc2)cc1` [Example 114, 3-[N-(2-Aminoethyl)-N-(p-toluenesulfonyl)]amino-2-[2-(p-tolyl)aminoethyl]aminopyridine] yielded an MIC of 12.5 to 25 µg/mL.
For `Cc1ccc(OCCNc2ccccc2N(CCN(C)C)S(=O)(=O)c2ccc(Cl)cc2)cc1.Cl` [Example 53, N-[2-(Dimethylamino)ethyl]-N-(4-chlorobenzenesulfonyl)-N′-[2-(4-methylphenoxy)ethyl]-o-phenylenediamine Hydrochloride], the Suppression in experiment [1] came out at 92%.
Turning to `CNC(=NC#N)NCCOCCN(c1ccccc1NCCOc1ccc(Cl)cc1)S(=O)(=O)c1ccc(Cl)cc1` [Example 14, N-(4-Chlorobenzenesulfonyl)-N-[2-(2-cyano-3-methylguanidino)ethoxyethyl]-N′-[2-(4-chlorophenoxy)ethyl]-o-phenylenediamine], the MIC in the experiment with Helicobacter pylori (setting [3]) was 6.25 to 50 µg/mL (≈ 10.3 to 82.6 µM).
Molecule `NCCN(c1cccnc1N1CCN(c2ccc(Cl)cc2)CC1)S(=O)(=O)c1ccc(Cl)cc1` [Example 136, 2-[4-(4-Chlorophenyl)-1-piperazino]-3-[N-(2-aminoethyl)-N-(4-chlorobenzenesulfonyl)]aminopyridine] showed an MIC against Helicobacter pylori of 3.13 to 12.5 µg/mL. Besides, the Suppression in experiment [2] is listed as 80%.
Take `O=S(=O)(c1ccc(Cl)cc1)N(CCO)c1ccccc1NCCOc1ccc(Cl)cc1` [Example 9, N-(4-Chlorobenzenesulfonyl)-N-(2-hydroxyethyl]-N′-[2-(4-chlorophenoxy)ethyl]-o-phenylenediamine]: the MIC with Helicobacter pylori (setting [3]) lay within 25 to 50 µg/mL (≈ 51.9 to 104 µM). In experiment [2], this molecule returned a Suppression of 85%.
Take `COc1ccc(NCCNc2ncccc2N(CCN)S(=O)(=O)c2ccc(OC)cc2)cc1` [Example 112, 3-[N-(2-Aminoethyl)-N-(4-methoxybenzenesulfonyl)]amino-2-[2-(4-methoxyphenyl)aminoethyl]aminopyridine]: the MIC with Helicobacter pylori is 12.5 to 50 µg/mL.
On the same count and under the same terms, with `NCCN(c1cccnc1N1CCN(c2ccc(Cl)cc2)C(=O)C1=O)S(=O)(=O)c1ccc(Cl)cc1` [Example 92, 3-[N-(4-Chlorobenzenesulfonyl)-N-(2-aminoethyl)]amino-2-[4-(4-chlorophenyl)-2,3-dioxo-1-piperadino]pyridine] the figure was more than 100 µg/mL.
The same measure, in the same setting: with `CN(C)CCN(c1cccnc1N1CCN(c2ccc(Cl)cc2)CC1)S(=O)(=O)c1ccc(Cl)cc1` [Example 138, 2-[4-(4-Chlorophenyl)-1-piperazino]-3-[N-(2-dimethylaminoethyl)-N-(4-chlorobenzenesulfonyl)]aminopyridine] the figure was 3.13 to 12.5 µg/mL.
`CN(C)CCN(c1ccccc1NCCOc1ccc(Cl)cc1)S(=O)(=O)c1cccc2ccccc12.Cl` [Example 38, N-[2-(Dimethylamino)ethyl]-N-(1-naphthalenesulfonyl)-N′-[2-(4-chlorophenoxy)ethyl]-o-phenylenediamine Hydrochloride] yielded a Suppression in experiment [1] of 93%.
Regarding `NCCN(c1ccccc1NCC=Cc1ccc(Cl)cc1)S(=O)(=O)c1ccc(Cl)cc1` [Example 62, N-(2-Aminoethyl)-N-(4-chlorobenzenesulfonyl)-N′-(4-chlorocinnamyl)-o-phenylenediamine], in the experiment on Helicobacter pylori (setting [3]), the MIC is 1.56 to 12.5 µg/mL (≈ 3.27 to 26.2 µM).
Take `O=S(=O)(c1ccc(Cl)cc1)N(CCCc1ccncc1)c1ccccc1NCCOc1ccc(Cl)cc1` [Example 10, N-(4-Chlorobenzenesulfonyl)-N-[3-(4-pyridyl)propyl]-N′-[2-(4-chlorophenoxy)ethyl]-o-phenylenediamine]: the MIC in the experiment on Helicobacter pylori (setting [3]) lay in the range of 25 to 100 µg/mL (≈ 44.9 to 180 µM). This molecule also displayed a Suppression in experiment [2] of 82%.
The molecule `NCCN(c1ccccc1OCCNc1ccc(Cl)cc1)S(=O)(=O)c1ccc(Cl)cc1` [Example 122, 1-[2-(4-Chlorophenyl)aminoethoxy]-2-[N-(2-aminoethyl)-N-(4-chlorobenzenesulfonyl)]aminobenzene] yielded an MIC against Helicobacter pylori of 12.5 to 25 µg/mL. This molecule also registered a Suppression in experiment [2] of 99%.
For the molecule `Cc1ccc(S(=O)(=O)N(CCOCCN)c2ccccc2NCCOc2ccc(Cl)cc2)cc1` [Example 35, N-[2-(2-Amino)ethoxyethyl]-N-(p-toluenesulfonyl)-N′-[2-(4-chlorophenoxy)ethyl]-o-phenylenediamine], the Suppression in experiment [2] is recorded as 99%.
For the molecule `NCCN(c1ccccc1NCCNc1ccc(Cl)cc1)S(=O)(=O)c1ccc(Cl)cc1` [Example 60, N-(2-Aminoethyl)-N-(4-chlorobenzenesulfonyl)-N′-[2-(4-chlorophenylamino)ethyl]-o-phenylenediamine], the MIC in the experiment on Helicobacter pylori (setting [3]) lay in the range of 6.25 to 25 µg/mL (≈ 13 to 52.1 µM).
As to `NCCN(c1cccnc1OCCNc1ccc(Cl)cc1)S(=O)(=O)c1ccc(Cl)cc1` [Example 113, 2-[2-(4-Chlorophenyl)aminoethoxy]-3-[N-(2-aminoethyl)-N-(4-chlorobenzenesulfonyl)]aminopyridine], in the experiment with Helicobacter pylori, the MIC was in the range of 25 to 50 µg/mL. Moreover, the Suppression in experiment [2] turned out to be 87%.
`O=S(=O)(c1ccc(Cl)cc1)N(CCN1CCCC1)c1ccccc1NCCOc1ccc(Cl)cc1` [Example 8, N-(4-Chlorobenzenesulfonyl)-N-[2-(1-pyrolidino)ethyl]-N′-[2-(4-chlorophenoxy)ethyl]-o-phenylenediamine] returned an MIC against Helicobacter pylori of 1.56 to 6.25 µg/mL. In addition, the Suppression in experiment [2] worked out at 86%.
In turn, `O=C(NCCOCCN(c1ccccc1NCCOc1ccc(Cl)cc1)S(=O)(=O)c1ccc(Cl)cc1)NC1CCCCC1` [Example 17, N-(4-Chlorobenzenesulfonyl)-N-[2-(2-cyclohexylureido)ethoxyethyl]-N′-[2-(4-chlorophenoxy)ethyl]-o-phenylenediamine] registered an MIC in the experiment on Helicobacter pylori of 25 to 50 µg/mL.
On to `NCCN(c1cccnc1NCCN(c1ccc(Cl)cc1)S(=O)(=O)c1ccc(Cl)cc1)S(=O)(=O)c1ccc(Cl)cc1` [Example 111, 2-[2-[N-(4-Chlorophenyl)-N-(4-chlorobenzenesulfonyl)]aminoethyl]amino-3-[N-(2-aminoethyl)-N-(4-chlorobenzenesulfonyl)]aminopyridine], for which the MIC against Helicobacter pylori is 25 µg/mL (≈ 38.2 µM). This molecule returned a Suppression in experiment [2] of 100%.
The molecule `O=S(=O)(Nc1cccnc1NCCNc1ccc(Cl)cc1)c1ccc(Cl)cc1` [Example 77] returned an MIC in the experiment on Helicobacter pylori of 6.25 to 12.5 µg/mL.
The molecule `COc1ccc(S(=O)(=O)N(CCN)c2ccccc2NCCOc2ccc(Cl)cc2)cc1` [Example 11, N-(2-Aminoethyl)-N-(4-methoxybenzenesulfonyl)-N′-[2-(4-chlorophenoxy)ethyl]-o-phenylenediamine] showed a Suppression in experiment [2] of 96%.
Regarding `O=S(=O)(c1ccc(Cl)cc1)N(CCN1CCNCC1)c1cccnc1NCCNc1ccc(Cl)cc1` [Example 97, 3-[N-(4-Chlorobenzenesulfonyl)-N-[2-(1-piperazinyl)ethyl]]amino-2-[2-(4-chlorophenyl)aminoethyl]aminopyridine], in the experiment on Helicobacter pylori, the MIC was 25 to 100 µg/mL. The same molecule registered a Suppression in experiment [2] of 81%.

What is called MIC is the lowest concentration that inhibits growth of the organism. The ED50 is the dose that gives a 50% effect, or the effect in half of the subjects. Read a high ED50 as weaker potency.
